# Measurements from patent publication US9856279B2 (AGIOS PHARMACEUTICALS, INC, priority 2011, dated 2018).
# Biological target: IDH1 R132H (Homo sapiens, UniProt O75874, R132H)
# Test: Assay for IDH1 R132H inhibitors (NADPH/aKG, resazurin detection)
# Format: biochemical
# Settings: Table 3; enzyme assay, 50 minutes at room temperature; read-out: IC50 (IDH1 R132H Inhibition)
# Method in brief: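 Read-out is resorufin fluorescence (Ex544/Em590) 5 min after adding a 30 μM resazurin detection mix. Before that, mutant enzyme (0.2 μg/ml in its mix) ran 50 min at room temperature with compound, 8 uM NADPH and 2 mM aKG (mix levels) in Tris pH 7.5 with NaCl, MgCl2, BSA.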
# Chain of IDH1 R132H (O75874 whole entry R132H): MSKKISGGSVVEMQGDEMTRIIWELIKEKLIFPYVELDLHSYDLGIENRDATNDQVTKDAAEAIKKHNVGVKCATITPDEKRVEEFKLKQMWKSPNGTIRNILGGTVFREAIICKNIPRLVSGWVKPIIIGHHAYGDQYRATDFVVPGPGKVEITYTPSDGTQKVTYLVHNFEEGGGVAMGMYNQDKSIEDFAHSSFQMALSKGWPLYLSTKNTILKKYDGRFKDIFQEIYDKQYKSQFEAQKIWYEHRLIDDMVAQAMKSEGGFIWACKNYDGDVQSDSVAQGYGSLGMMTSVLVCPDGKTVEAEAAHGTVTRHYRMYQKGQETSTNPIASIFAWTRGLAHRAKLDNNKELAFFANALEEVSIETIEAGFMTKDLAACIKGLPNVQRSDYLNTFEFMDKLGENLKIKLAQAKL
row,Structure (SMILES),IC50
1,"COCCC(=O)N1CCN(c2nc(C3CC3)c(-c3cccc(OC)c3)cc2C#N)C[C@H]1C [Compound 236, (R)-6-cyclopropyl-5-(3-methoxyphenyl)-2-(4-(3-methoxypropanoyl)-3-methylpiperazin-1-yl)nicotinonitrile]",≤ 1000 nM
2,"COCCC(=O)N1CCN(c2nc(C3CC3)c(-c3ccc(OC)c(OC)c3)cc2C#N)C[C@H]1C [Compound 237, (R)-6-cyclopropyl-5-(3,4-dimethoxyphenyl)-2-(4-(3-methoxypropanoyl)-3-methylpiperazin-1-yl)nicotinonitrile]",1000 to 5000 nM
3,"COCCC(=O)N1CCN(c2nc(C(C)C)c(Cc3ccccc3)cc2C#N)C[C@H]1C [Compound 239, (R)-5-benzyl-6-isopropyl-2-(4-(3-methoxypropanoyl)-3-methylpiperazin-1-yl)nicotinonitrile]",1000 to 5000 nM
4,"COCCC(=O)N1CCN(c2nc(-c3ccccc3)c(-c3ccccc3)cc2C#N)C[C@H]1C [Compound 240, (R)-2-(4-(3-methoxypropanoyl)-3-methylpiperazin-1-yl)-5,6-diphenylnicotinonitrile]",1000 to 5000 nM
5,"COCCC(=O)N1CCN(c2nc(C3CC3)c(-c3ccc(F)cc3)c(C)c2C#N)C[C@H]1C [Compound 241, (R)-6-cyclopropyl-5-(4-fluorophenyl)-2-(4-(3-methoxypropanoyl)-3-methylpiperazin-1-yl)-4-methylnicotinonitrile]",≤ 1000 nM
6,"COCCC(=O)N1CCN(c2nc(C3CC3)c(-c3cncc4ccccc34)cc2C#N)C[C@H]1C [Compound 242, (R)-6-cyclopropyl-5-(isoquinolin-4-yl)-2-(4-(3-methoxypropanoyl)-3-methylpiperazin-1-yl)nicotinonitrile]",≤ 1000 nM
7,"COCCC(=O)N1CCN(c2nc(C3CC3)c(-c3cccc(C)c3)c(C)c2C#N)C[C@H]1C [Compound 243, (R)-6-cyclopropyl-2-(4-(3-methoxypropanoyl)-3-methylpiperazin-1-yl)-4-methyl-5-m-tolylnicotinonitrile]",≤ 1000 nM
8,"COCCC(=O)N1CCN(c2nc(C(C)C)c(-c3ccc(F)cc3)cc2C(=O)OC)C[C@H]1C [Compound 244, (R)-methyl 5-(4-fluorophenyl)-6-isopropyl-2-(4-(3-methoxypropanoyl)-3-methylpiperazin-1-yl)nicotinate]",1000 to 5000 nM
9,"COCCC(=O)N1CCN(c2nc(C3CC3)c(Cc3ccccc3)c(C)c2C#N)C[C@H]1C [Compound 245, (R)-5-benzyl-6-cyclopropyl-2-(4-(3-methoxypropanoyl)-3-methylpiperazin-1-yl)-4-methylnicotinonitrile]",1000 to 5000 nM
10,"COCCC(=O)N1CCN(c2nc(C3CC3)c(-c3ccsc3)cc2C#N)C[C@H]1C [Compound 246, (R)-6-cyclopropyl-2-(4-(3-methoxypropanoyl)-3-methylpiperazin-1-yl)-5-(thiophen-3-yl)nicotinonitrile]",≤ 1000 nM
11,"COCCC(=O)N1CCN(c2nc(C3CC3)c(-c3cc4ccccc4s3)cc2C#N)C[C@H]1C [Compound 247, (R)-5-(benzo[b]thiophen-2-yl)-6-cyclopropyl-2-(4-(3-methoxypropanoyl)-3-methylpiperazin-1-yl)nicotinonitrile]",1000 to 5000 nM
12,"COCCC(=O)N1CCN(c2nc(C3CC3)c(-c3ccc(F)c(Cl)c3)cc2C#N)C[C@H]1C [Compound 248, (R)-5-(3-chloro-4-fluorophenyl)-6-cyclopropyl-2-(4-(3-methoxypropanoyl)-3-methylpiperazin-1-yl)nicotinonitrile]",≤ 1000 nM
13,"COCCC(=O)N1CCN(c2nc(C3CC3)c(-c3ccccc3F)cc2C#N)C[C@H]1C [Compound 249, (R)-6-cyclopropyl-5-(2-fluorophenyl)-2-(4-(3-methoxypropanoyl)-3-methylpiperazin-1-yl)nicotinonitrile]",≤ 1000 nM
14,"COCCC(=O)N1CCN(c2nc(C3CC3)c(-c3ccc(F)cc3F)cc2C#N)C[C@H]1C [Compound 250, (R)-6-cyclopropyl-5-(2,4-difluorophenyl)-2-(4-(3-methoxypropanoyl)-3-methylpiperazin-1-yl)nicotinonitrile]",≤ 1000 nM
15,"COCCC(=O)N1CCN(c2nc(C3CC3)c(-c3cccc(OC)c3)c(C)c2C#N)C[C@H]1C [Compound 251, (R)-6-cyclopropyl-5-(3-methoxyphenyl)-2-(4-(3-methoxypropanoyl)-3-methylpiperazin-1-yl)-4-methylnicotinonitrile]",≤ 1000 nM
16,"COCCC(=O)N1CCN(c2nc(C3CC3)c(-c3ccc(OC)nc3)cc2C#N)C[C@H]1C [Compound 252, (R)-2-cyclopropyl-6′-methoxy-6-(4-(3-methoxypropanoyl)-3-methylpiperazin-1-yl)-3,3′-bipyridine-5-carbonitrile]",≤ 1000 nM
17,"COCCC(=O)N1CCN(c2nc(C3CC3)c(-c3ccc4[nH]ccc4c3)cc2C#N)C[C@H]1C [Compound 253, (R)-6-cyclopropyl-5-(1H-indol-5-yl)-2-(4-(3-methoxypropanoyl)-3-methylpiperazin-1-yl)nicotinonitrile]",≤ 1000 nM
18,"COCCC(=O)N1CCN(c2nc(C(C)C)c(OCc3ccccc3)cc2C#N)C[C@H]1C [Compound 254, (R)-5-(benzyloxy)-6-isopropyl-2-(4-(3-methoxypropanoyl)-3-methylpiperazin-1-yl)nicotinonitrile]",1000 to 5000 nM
19,"COCCC(=O)N1CCN(c2nc(C3CC3)c(-c3ccc(OC(F)(F)F)cc3)c(C)c2C#N)C[C@H]1C [Compound 255, (R)-6-cyclopropyl-2-(4-(3-methoxypropanoyl)-3-methylpiperazin-1-yl)-4-methyl-5-(4-(trifluoromethoxy)-phenyl)nicotinonitrile]",≤ 1000 nM
20,"COCCC(=O)N1CCN(c2nc(C3CC3)c(-c3ccc(F)cc3F)c(C)c2C#N)C[C@H]1C [Compound 256, 6-cyclopropyl-5-(2,4-difluorophenyl)-2-((R)-4-(3-methoxypropanoyl)-3-methylpiperazin-1-yl)-4-methyl-nicotinonitrile]",≤ 1000 nM
21,"COCCC(=O)N1CCN(c2nc(C3CC3)c(-c3cccc(F)c3)c(C)c2C#N)C[C@H]1C [Compound 257, (R)-6-cyclopropyl-5-(3-fluorophenyl)-2-(4-(3-methoxypropanoyl)-3-methylpiperazin-1-yl)-4-methylnicotinonitrile]",≤ 1000 nM
22,"COCCC(=O)N1CCN(c2nc(C3CC3)c(-c3ccc(C)c(F)c3)c(C)c2C#N)C[C@H]1C [Compound 258, (R)-6-cyclopropyl-5-(3-fluoro-4-methylphenyl)-2-(4-(3-methoxypropanoyl)-3-methylpiperazin-1-yl)-4-methylnicotinonitrile]",≤ 1000 nM
23,"COCCC(=O)N1CCN(c2nc(C3CC3)c(-c3ccc4ccccc4c3)c(C)c2C#N)C[C@H]1C [Compound 259, (R)-6-cyclopropyl-2-(4-(3-methoxypropanoyl)-3-methylpiperazin-1-yl)-4-methyl-5-(naphthalen-2-yl)nicotinonitrile]",≤ 1000 nM
24,"COCCC(=O)N1CCN(c2nc(C3CC3)c(-c3ccncc3)c(C)c2C#N)C[C@H]1C [Compound 260, (R)-2-cyclopropyl-6-(4-(3-methoxypropanoyl)-3-methylpiperazin-1-yl)-4-methyl-3,4′-bipyridine-5-carbonitrile]",≤ 1000 nM
25,"COCCC(=O)N1CCN(c2nc(C3CC3)c(-c3ccc4c(c3)OCO4)c(C)c2C#N)C[C@H]1C [Compound 261, (R)-5-(benzo[d][1,3]dioxol-5-yl)-6-cyclopropyl-2-(4-(3-methoxypropanoyl)-3-methylpiperazin-1-yl)-4-methylnicotinonitrile]",≤ 1000 nM
26,"COCCC(=O)N1CCN(c2nc(C3CC3)c(-c3ccsc3)c(C)c2C#N)C[C@H]1C [Compound 262, (R)-6-cyclopropyl-2-(4-(3-methoxypropanoyl)-3-methylpiperazin-1-yl)-4-methyl-5-(thiophen-3-yl)nicotinonitrile]",≤ 1000 nM

# Same assay, conditions: enzyme assay of Example 12; read-out: IDH1R132H IC50
row,Structure (SMILES),IC50
1,"COCCC(=O)N1CCN(c2nc(C3CC3)c(-c3cccs3)cc2C#N)C[C@H]1C [Compound 273, (R)-6-cyclopropyl-2-(4-(3-methoxypropanoyl)-3-methylpiperazin-1-yl)-5-(thiophen-2-yl)nicotinonitrile]",500 to 1000 nM
2,"COCCC(=O)N1CCN(c2nc(C3CC3)c(OCc3ccc(OC)cc3)cc2C#N)C[C@H]1C [Compound 281, (R)-6-cyclopropyl-5-(4-methoxybenzyloxy)-2-(4-(3-methoxypropanoyl)-3-methylpiperazin-1-yl)nicotinonitrile]",500 to 1000 nM
3,"COCCC(=O)N1CCN(c2nc(C3CC3)c(-c3ccc(-c4ccccc4)c(F)c3)c(C)c2C#N)C[C@H]1C [Compound 282, (R)-6-cyclopropyl-5-(2-fluorobiphenyl-4-yl)-2-(4-(3-methoxypropanoyl)-3-methylpiperazin-1-yl)-4-methylnicotinonitrile]",500 to 1000 nM
4,"COCCC(=O)N1CCN(c2nc(C3CC3)c(-c3cccc(NC(C)=O)c3)cc2C#N)C[C@H]1C [Compound 284, (R)—N-(3-(5-cyano-2-cyclopropyl-6-(4-(3-methoxypropanoyl)-3-methylpiperazin-1-yl)pyridin-3-yl)phenyl)acetamide]",500 to 1000 nM
5,"COCCC(=O)N1CCN(c2nc(C3CC3)c(-c3ccc4cc[nH]c4c3)cc2C#N)C[C@H]1C [Compound 289, (R)-6-cyclopropyl-5-(1H-indol-6-yl)-2-(4-(3-methoxypropanoyl)-3-methylpiperazin-1-yl)nicotinonitrile]",< 500 nM
6,"COCCC(=O)N1CCN(c2nc(C3CC3)c(-c3ccc(F)c4ccccc34)cc2C#N)C[C@H]1C [Compound 290, (R)-6-cyclopropyl-5-(4-fluoronaphthalen-1-yl)-2-(4-(3-methoxypropanoyl)-3-methylpiperazin-1-yl)nicotinonitrile]",< 500 nM
7,"COCCC(=O)N1CCN(c2nc(C3CC3)c(-c3cccc(CC(=O)OC)c3)cc2C#N)C[C@H]1C [Compound 291, (R)-methyl 2-(3-(5-cyano-2-cyclopropyl-6-(4-(3-methoxypropanoyl)-3-methylpiperazin-1-yl)pyridin-3-yl)phenyl)acetate]",500 to 1000 nM
